Measured values taken from article PMC12755129 (Blood, 2025).

Biological target: LRRC8A (SWELL1), LRRC8 volume-regulated anion channel complex (Homo sapiens, UniProt Q8IWT6)
Experiment: patch clamp of hypotonic swell-activated VRAC/ATP currents in MEG-01 cells
Format: cell-based

LRRC8A (SWELL1), LRRC8 volume-regulated anion channel complex, sequence (Q8IWT6 whole entry): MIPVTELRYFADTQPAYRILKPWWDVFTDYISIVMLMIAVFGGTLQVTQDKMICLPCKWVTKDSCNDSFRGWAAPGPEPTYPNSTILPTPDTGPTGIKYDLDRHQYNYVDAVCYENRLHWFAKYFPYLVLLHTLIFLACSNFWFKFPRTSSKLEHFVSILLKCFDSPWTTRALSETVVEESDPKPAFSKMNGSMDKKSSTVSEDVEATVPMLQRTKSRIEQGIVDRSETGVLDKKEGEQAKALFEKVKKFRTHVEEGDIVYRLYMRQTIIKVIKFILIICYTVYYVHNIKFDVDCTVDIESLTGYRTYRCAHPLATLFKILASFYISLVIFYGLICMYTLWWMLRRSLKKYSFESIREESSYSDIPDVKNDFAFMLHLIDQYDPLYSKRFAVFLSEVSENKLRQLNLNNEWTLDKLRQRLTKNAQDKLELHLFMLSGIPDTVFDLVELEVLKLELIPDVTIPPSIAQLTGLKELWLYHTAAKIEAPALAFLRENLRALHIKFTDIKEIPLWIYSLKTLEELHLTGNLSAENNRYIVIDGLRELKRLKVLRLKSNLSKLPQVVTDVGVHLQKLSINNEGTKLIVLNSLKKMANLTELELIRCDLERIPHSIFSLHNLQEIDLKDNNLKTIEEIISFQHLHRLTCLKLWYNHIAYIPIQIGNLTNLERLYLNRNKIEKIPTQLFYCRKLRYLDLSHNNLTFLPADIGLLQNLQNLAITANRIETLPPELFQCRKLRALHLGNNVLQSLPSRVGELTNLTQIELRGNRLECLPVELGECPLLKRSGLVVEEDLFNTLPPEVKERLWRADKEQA
LRRC8A (SWELL1), LRRC8 volume-regulated anion channel complex, sequence (Q6P9F7 whole entry partner): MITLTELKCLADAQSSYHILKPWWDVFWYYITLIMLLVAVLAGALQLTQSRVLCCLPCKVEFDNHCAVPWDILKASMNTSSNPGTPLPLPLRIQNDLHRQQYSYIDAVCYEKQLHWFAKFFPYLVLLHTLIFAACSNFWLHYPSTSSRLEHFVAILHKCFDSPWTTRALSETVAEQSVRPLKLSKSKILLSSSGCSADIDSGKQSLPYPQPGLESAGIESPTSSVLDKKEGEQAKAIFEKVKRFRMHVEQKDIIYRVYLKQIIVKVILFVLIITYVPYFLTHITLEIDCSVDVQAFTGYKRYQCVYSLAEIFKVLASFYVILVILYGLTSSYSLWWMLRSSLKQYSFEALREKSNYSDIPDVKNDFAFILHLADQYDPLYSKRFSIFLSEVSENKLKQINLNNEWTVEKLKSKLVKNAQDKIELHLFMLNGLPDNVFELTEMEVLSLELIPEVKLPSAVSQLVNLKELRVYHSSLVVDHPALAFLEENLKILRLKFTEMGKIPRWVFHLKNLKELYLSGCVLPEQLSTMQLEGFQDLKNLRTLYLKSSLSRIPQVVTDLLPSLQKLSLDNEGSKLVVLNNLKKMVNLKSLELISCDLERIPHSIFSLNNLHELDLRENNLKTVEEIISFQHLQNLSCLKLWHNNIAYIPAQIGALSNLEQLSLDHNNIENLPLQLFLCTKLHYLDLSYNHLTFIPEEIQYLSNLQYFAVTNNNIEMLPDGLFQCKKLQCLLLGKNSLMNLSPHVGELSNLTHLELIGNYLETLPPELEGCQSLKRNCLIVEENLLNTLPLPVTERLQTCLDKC
LRRC8A (SWELL1), LRRC8 volume-regulated anion channel complex, sequence (Q8TDW0 whole entry partner): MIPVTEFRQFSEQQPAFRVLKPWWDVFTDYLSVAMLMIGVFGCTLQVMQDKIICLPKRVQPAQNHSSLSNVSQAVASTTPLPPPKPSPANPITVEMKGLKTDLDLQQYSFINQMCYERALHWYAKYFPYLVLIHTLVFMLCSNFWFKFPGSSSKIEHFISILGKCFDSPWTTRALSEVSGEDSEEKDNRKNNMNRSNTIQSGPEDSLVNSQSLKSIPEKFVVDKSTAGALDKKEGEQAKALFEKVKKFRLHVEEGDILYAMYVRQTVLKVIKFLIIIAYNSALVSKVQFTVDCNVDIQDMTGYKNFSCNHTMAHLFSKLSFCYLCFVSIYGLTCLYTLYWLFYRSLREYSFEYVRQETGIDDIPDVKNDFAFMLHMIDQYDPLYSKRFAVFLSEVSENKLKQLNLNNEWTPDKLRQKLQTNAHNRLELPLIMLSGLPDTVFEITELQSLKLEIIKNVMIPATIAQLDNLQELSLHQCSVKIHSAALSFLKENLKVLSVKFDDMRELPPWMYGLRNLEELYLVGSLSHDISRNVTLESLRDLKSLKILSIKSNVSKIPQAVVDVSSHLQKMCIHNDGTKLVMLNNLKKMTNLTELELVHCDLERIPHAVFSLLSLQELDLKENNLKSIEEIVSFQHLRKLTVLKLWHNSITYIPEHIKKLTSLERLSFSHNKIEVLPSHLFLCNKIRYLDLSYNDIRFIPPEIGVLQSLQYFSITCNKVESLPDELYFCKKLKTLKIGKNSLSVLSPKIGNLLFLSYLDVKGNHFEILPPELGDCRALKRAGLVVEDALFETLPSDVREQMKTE
LRRC8A (SWELL1), LRRC8 volume-regulated anion channel complex, sequence (Q7L1W4 whole entry partner): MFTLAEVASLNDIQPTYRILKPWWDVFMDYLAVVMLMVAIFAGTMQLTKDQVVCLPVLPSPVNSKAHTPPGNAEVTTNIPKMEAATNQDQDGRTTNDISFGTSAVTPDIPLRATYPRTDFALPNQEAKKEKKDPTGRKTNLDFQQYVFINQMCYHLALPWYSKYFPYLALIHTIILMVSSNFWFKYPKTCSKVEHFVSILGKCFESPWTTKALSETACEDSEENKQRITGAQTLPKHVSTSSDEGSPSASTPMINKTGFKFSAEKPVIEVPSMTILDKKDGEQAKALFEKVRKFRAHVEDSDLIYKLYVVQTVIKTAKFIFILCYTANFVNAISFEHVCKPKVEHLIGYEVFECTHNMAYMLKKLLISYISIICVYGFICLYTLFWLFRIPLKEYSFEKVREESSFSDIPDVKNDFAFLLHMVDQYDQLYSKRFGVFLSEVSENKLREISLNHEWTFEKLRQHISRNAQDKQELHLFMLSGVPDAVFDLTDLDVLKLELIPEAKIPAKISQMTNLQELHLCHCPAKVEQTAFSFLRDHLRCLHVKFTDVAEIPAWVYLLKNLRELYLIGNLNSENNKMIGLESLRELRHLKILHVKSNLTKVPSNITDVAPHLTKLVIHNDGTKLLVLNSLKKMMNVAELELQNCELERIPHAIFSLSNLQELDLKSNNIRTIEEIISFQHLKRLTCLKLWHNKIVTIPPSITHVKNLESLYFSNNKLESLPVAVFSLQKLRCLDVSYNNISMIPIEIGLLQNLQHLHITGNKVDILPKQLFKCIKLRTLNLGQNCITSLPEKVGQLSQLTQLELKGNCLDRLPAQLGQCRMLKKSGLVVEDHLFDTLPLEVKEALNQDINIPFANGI

Molecule | IC50 [nM]
SN-406 | 1000
CCCCC1(C2CCCC2)Cc2cc(OCCCC(=O)O)c(Cl)c(Cl)c2C1=O (centres unmarked) [SN-401, 4-(2-butyl-6,7-dichloro-2-cyclopentylindan-1-on-5-yl)oxybutyric acid] | 1500
